Test results published in patent publication US12186332B2, “Methods for overcoming WNT/beta-catenin anti-cancer resistance in leukemia stem cells” (STOWERS INSTITUTE FOR MEDICAL RESEARCH, priority 2019, dated 2025).

Biological target: T1, Akt:β-catenin interaction (EGFP-AKT and mCherry-β-catenin) (Mus musculus, UniProt Q02248)
T1 construct: host or cells: 293T cells
T1 sequence (Q02248 1-781): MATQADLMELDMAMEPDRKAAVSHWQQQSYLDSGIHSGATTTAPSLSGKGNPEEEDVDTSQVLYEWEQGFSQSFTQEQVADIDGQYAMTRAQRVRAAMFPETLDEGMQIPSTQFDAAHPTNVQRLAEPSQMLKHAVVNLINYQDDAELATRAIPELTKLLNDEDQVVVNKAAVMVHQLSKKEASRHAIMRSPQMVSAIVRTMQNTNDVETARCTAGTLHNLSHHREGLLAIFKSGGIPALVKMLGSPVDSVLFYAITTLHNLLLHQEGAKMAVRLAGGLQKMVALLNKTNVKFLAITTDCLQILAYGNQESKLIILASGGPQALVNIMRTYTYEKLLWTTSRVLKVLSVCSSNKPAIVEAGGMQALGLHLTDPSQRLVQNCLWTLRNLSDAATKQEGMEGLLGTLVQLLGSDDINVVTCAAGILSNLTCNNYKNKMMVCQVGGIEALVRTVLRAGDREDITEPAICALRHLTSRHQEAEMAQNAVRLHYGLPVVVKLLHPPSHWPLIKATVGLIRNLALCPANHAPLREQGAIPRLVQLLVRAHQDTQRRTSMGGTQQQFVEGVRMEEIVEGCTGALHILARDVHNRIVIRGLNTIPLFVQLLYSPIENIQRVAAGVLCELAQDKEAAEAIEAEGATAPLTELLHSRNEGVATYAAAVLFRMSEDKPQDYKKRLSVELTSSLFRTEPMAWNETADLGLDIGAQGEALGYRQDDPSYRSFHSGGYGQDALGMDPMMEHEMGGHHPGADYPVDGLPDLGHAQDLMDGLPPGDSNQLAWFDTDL
Experiment: FRET assay (acceptor photobleaching), 293T cells
Assay type: cell-based
Description: Cells transfected with EGFP-AKT and mCherry-β-catenin were treated with vehicle or Doxorubicin at the indicated concentrations and FRET efficiency was determined.
FIG. 7C provides the FRET verification between Akt and β-catenin.
FRET measurement was performed by using the acceptor photobleaching method. Briefly, 293T cells were transfected with EGFP-AKT and mCherry-β-catenin (Addgene, #39531, #55001). A Perkin-Elmer Ultraview spinning disc system with a CSU-X1 Yokogawa disc was used for imaging. A 40×1.2 NA Plan-apochromatic objective was used, and emission was collected onto a C9100 Hamamatsu Photonics EM-CCD. EGFP was excited with a 488 nm laser, and emission was collected through a 500-555 nm band pass filter. mCherry was illuminated, and photobleached, with a 561 nm laser. Emission of mCherry was collected with a 580-650 nm band pass filter. 6 images of EGFP were acquired before and 8 images after bleaching of the mCherry with intense 561 nm light. After subtraction of camera background, the average intensity of EGFP in a region of interest spanning the bleached cell was determined in the 4 images before acceptor bleach (I1), or the 4 images after acceptor bleach (12). FRET efficiency is reported as 1−(I1/I2). Calculations were based on >500 cell images.

COc1cccc2c1C(=O)c1c(O)c3c(c(O)c1C2=O)C[C@@](O)(C(=O)CO)C[C@@H]3O[C@H]1C[C@H](N)[C@H](O)[C@H](C)O1 [DXR, doxorubicin]
concentration at which Akt:β-catenin interaction is inhibited: < 1 µM
FRET between EGFP-AKT and mCherry-β-catenin (versus vehicle treated cells): decreased with increasing concentrations and exposure time
